Each structure is given as a SMILES string. Structures can show the parent of a compound that is named as a salt.

Test [1] deals with T1, Plasmin (Homo sapiens, UniProt P00747). In words: biochemical. The note with it: substrate S-2251. Here is the method:
(§1) (1) Evaluation of Antiplasmin Activity
(ii) Determination of prevention activity for S-2251 decomposition
An inhibitor sample is dissolved in a 0.05 M Tris-hydrochloric acid buffer solution (pH = 7.4) to make the total volume to 400 µl. To this solution, 50 pl of a 3 mM S-2251 solution is added and the mixture is incubated at a temperature of 37°C for 5 minutes in a constant temperature bath. Then, 50 pl of a 0.2 casein unit/ml human plasmin is added and the mixture is incubated at a temperature of 37°C for 4 minutes. Thereafter, the reaction is stopped by adding 50 µl of 50% acetic acid.
The absorbance of p-nitroaniline formed in the reaction mixture is determined at 405 nm. Thus, the concentration I50 of the inhibitor sample, at which the absorbance is one half (i.e., 1/2) of that obtained in the absence of the inhibitor, is determined.

For test [2], the target named is T1, Plasmin. The experiment in a line: Antiplasmin activity: prevention of fibrinogen decomposition. The settings on record: Table IV, present compounds, read-out: I50 Fibrinogen. Type of test: biochemical. Here is the method:
as §1
(iii) Determination of prevention activity for fibrinogen
An inhibitor sample is dissolved in a 0.18 M borate-physiological salt buffer solution (pH = 7.4) to make the total volume to 400 µl. To this solution, 500 pl of a 0.4% bovine fibrinogen solution and 100 pl of a 1 casein unit/ml human plasmin solution, all dissolved in the above-mentioned buffer are added at a temperature of 37°C in a constant temperature bath. After the mixture is allowed to stand at a temprature of 37°C for 10 minutes, 3800 µl of the above-mentioned buffer containing (3.2 mM of tranexamic acid and 200 µl of a 50 unit/ml bovine thrombin solution are added to terminate the reaction. The mixture is incubated at a temperature of 37°C for 15 minutes to precipitate the fibrin. The fibrin mass thus precipitated is adhered to or wound around a glass rod and is then washed with water. The amount of the remaining fibrinogen is determined according to a tyrosine coloring method using a phenol reagent (see J. Biol. Chem., 73, 627 (1927). From the amount of the remaining fibrinogen thus determined, the amount of decomposed fibrinogen is calculated. Thus, the concentration 150 of the inhibitor sample, at which the amount of decomposed fibrinogen is one half (i.e., 1/2) of that obtained in the absence of the inhibitor sample, is determined.

The target of test [3] is T1, Plasmin. In words: biochemical. The note with it: Table IV, present compounds; plasmin, fibrin decomposition; read-out: I50 Fibrin. On the procedure:
as §1
(i) Determination of prevention activity for fibrin decomposition
0.18 M borate-physiological salt buffer solution (pH = 7.4) to make the total volme to 600 pl. To this buffer solution, 200 µl of a 0.2% bovin fibrinogen, 100 µl of a 0.3 cassein unit/ml human […] solution, and 100 µl of a 50 unit/ml bovine thrombin solution, all dissolved in the above-mentioned buffer, are added at a temperature of 37°C in a constant temperature bath. Then, the dissolution time of the fibrin mass formed above is determined.

Where [4] appears, read: Table IV, present compounds, plasmin, read-out: I50 S-2251.

T1 sequence (P00747 581-810 limits assumed): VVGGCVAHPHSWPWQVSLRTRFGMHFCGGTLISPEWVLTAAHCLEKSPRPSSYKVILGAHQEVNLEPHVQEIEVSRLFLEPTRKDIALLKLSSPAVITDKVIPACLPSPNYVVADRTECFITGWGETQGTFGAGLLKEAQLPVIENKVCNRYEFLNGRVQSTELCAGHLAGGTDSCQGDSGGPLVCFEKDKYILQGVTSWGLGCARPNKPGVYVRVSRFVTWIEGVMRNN
T1 sequence (P00747 97-580 partner limits assumed): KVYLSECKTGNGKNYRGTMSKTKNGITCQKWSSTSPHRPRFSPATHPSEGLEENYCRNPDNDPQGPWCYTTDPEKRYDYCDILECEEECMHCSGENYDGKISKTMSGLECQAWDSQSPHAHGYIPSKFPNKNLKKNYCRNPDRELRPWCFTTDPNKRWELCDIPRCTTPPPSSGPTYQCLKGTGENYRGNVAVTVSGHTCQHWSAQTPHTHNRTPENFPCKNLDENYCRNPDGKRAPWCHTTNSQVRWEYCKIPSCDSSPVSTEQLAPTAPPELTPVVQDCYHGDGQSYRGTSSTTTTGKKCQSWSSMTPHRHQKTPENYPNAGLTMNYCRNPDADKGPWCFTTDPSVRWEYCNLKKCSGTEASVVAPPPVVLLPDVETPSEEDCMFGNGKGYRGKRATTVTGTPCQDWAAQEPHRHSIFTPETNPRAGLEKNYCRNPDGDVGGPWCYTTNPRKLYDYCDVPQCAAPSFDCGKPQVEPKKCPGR

Regarding `Cc1ccc(S(=O)(=O)N[C@@H](CCCCN)C(=O)Nc2ccc([N+](=O)[O-])cc2)cc1` [Compound No. 3, N^2-(p-toluenesulfonyl)-L-lysine p-nitroanilide hydrochloride], the IC50 at Plasmin [1] (Table III, known compounds of Table II, *1: 0% Inhibition at the given concentration, read-out: I50 Plasmin S-2251) turned out to be 50000 µM; at Plasmin [1] (setting [4]), 700 µM; at Plasmin [2], 900 µM; on Plasmin [3], 780 µM.

Turning to `CCOC(=O)c1cc(NC(=O)[C@H](CCCCN)NS(=O)(=O)c2cccc3ccccc23)cc(C(=O)OCC)c1` [Compound No. 11], the IC50 at Plasmin [1] (setting [4]) came to 390 µM; on Plasmin [2], 80 µM; at Plasmin [3], 75 µM.

`Cc1ccc(S(=O)(=O)N[C@@H](CCCCN)C(=O)Nc2ccc(C(=O)c3ccccc3)cc2)cc1` [compound 36]: the IC50 on Plasmin [1] (setting [4]) was determined as 140 µM; on Plasmin [2], 200 µM.
